Values of other authors, collected in patent publication US20220080043A1, “OIL/SURFACTANT MIXTURES FOR SELF-EMULSIFICATION” (priority 2019, published 2022).

Details: Table 2; surfactants used

For sorbitan monooleate [Span80], the HLB is listed as 4.3.
